Measurements from patent US20210130291A1, “METHODS FOR TREATING DIABETES USING VDAC1 INHIBITORS” (THE NATIONAL INSTITUTE FOR BIOTECHNOLOGY IN THE NEGEV LTD., priority 2016, published 2021).

What was measured:
islets from T2D donors = test: ATP content and GSIS in islets from T2D donors, acute addition of VDAC1 inhibitors; format: cell-based, human; details: for GSIS: T2D islets, acute addition 1 h (FIG. 6f); for islet ATP content: islets from 5 T2D donors and one IGT donor, 1 h, at 1 and 16.7 mM glucose (FIG. 6e)
Source text: Human pancreatic islets were obtained through collaboration between Human Tissue Laboratory within Lund University Diabetes Centre (LUDC) and the Nordic Network for Clinical Islet Transplantation (Prof. Olle Korsgren, Uppsala University, Sweden). Donors were grouped according to HbA1c i.e. less than 6% (ND), between 6% and 6.5% (IGT), higher than 6.5% or history of diabetes (T2D). The human islets (70-90% purity) had been cultured in CMRL 1066 (ICN Biomedicals, Costa Mesa, Calif.) supplemented with 10 mM HEPES, 2 mM L-glutamine, […] gentamicin, […] fungizone (Gibco, BRL, Gaithersburg, Md.), 20 μg/ml ciprofloxacin (Bayer Healthcare, Leverkusen, Germany) and 10 mM nicotinamide at 37° C. (5% CO2) for 1 to 5 days prior to the arrival in the laboratory. The islets were then hand-picked under stereomicroscope prior to use. All procedures using human islets were approved by the ethical committees at Uppsala and Lund Universities, Sweden.
(§1) Human pancreatic islets were collected under a stereomicroscope at room temperature and cultured at 5.5 or 20 mM glucose in the absence or presence of test agents for 72 h. Thereafter the islets were washed and preincubated for 30 min at 37° C. in Krebs Ringer bicarbonate buffer, pH 7.4, supplemented with N-2 hydroxyethylpiperazine-N′-2-ethanesulfonic acid (10 mM), 0.1% bovine serum albumin, and 1 mM glucose. Each incubation vial contained 12 islets in 1.0 ml KRB buffer solution and treated with 95% O2 and 5% CO2 to obtain constant pH and oxygenation. After preincubation, the buffer was changed to a medium containing either 1 mM or 16.7 mM glucose. The islets were then incubated for 1 h at 37° C. in a metabolic shaker (30 cycles per min). Immediately after incubation an aliquot of the medium was removed for analysis of insulin and the islets were incubated in acid-ethanol for insulin content determination by radioimmunoassay.
(§2) ATP release from isolated mouse or human islets or from INS-1 cells after transfection with mitochondrial targeted VDAC1 (mtVDAC1) or plasma membrane targeted VDAC1 (plVDAC1) plasmids was determined using a luminometric assay kit according to manufacturer's recommendation (Biovision). After incubation of islets (50/vial) or INS-1 cells for 60 min, an aliquot of the media was removed for subsequent measurements of released ATP. Then the islets or INS-1 cells were washed 3 times and the lysates were used for measurements of ATP and protein contents followed the protocol provided by the vendor.

islets of C57/BL mice = test: ATP content and GSIS in islets of control C57/BL mice; format: cell-based, mouse; details: VDAC1 antibody 10 nM; for GSIS: others 20 μM (FIG. 7e); for ATP content: others 20 μM (FIG. 7d)
Method: 5 weeks old db/db mice and control (C57/bl) (Janvier Laboratory, France), weighing 18-25 g, were used throughout the experiments. They were given a standard pellet diet (B&K) and tap water ad libitum. The experimental procedures were approved by the Ethics Committee for Animal Research at Lund University. Isolation of pancreatic islets was performed by retrograde injection of a collagenase solution via the bile-pancreatic duct and islets were then collected under a stereomicroscope at room temperature.
as §1, §2

[1] = tested on: VDAC1 expression in INS-1 cells; test: VDAC1 expression in INS-1 cells cultured at 5 or 20 mM glucose; format: cell-based, rat; details: INS-1 cells cultured 72 h at 20 mM glucose; VDAC1ab 10 nM, metformin, AKOS, VBIT-4 20 μM each (FIG. 4l, 4m)
Method: INS-1 832/13 cells (kindly donated by Dr. C. B. Newgaard, Duke University, USA) were cultured in RPMI-1640 containing 11.1 mM D-glucose and supplemented with 10% fetal bovine serum, 100 U/ml penicillin (Gibco), 100 µg/ml streptomycin (Gibco), 10 mM HEPES, 2 mM glutamine, 1 mM sodium pyruvate, and 50 µM β-mercaptoethanol (Sigma), at 37° C. in a humidified atmosphere containing 95% air and 5% CO2. For VDAC1 over-expression by VDAC1 plasmid (1 μg/ml) and VDAC2 down-regulation by and siRNA, INS1 832/13 cells were cultured to 60% confluence. To study the long-term effects (24-72 h) of high glucose (20 mM) (glucotoxicity) compared to basal glucose (5 mM), INS-1 832/13 cells were cultured with RPMI 1640 complete media (Ahmed, M., et al., 2010. Islets 2, 283-292) in the presence or absence of indicated agents and thereafter VDAC1 expression, cell viability and function was measured.
Total RNA from handpicked mouse islets, human donor islets (Diabetic and non-diabetic) or INS1 832/13 cells were extracted using RNAeasy (Qiagen, Hilden, Germany). RNA ([…]) was used for cDNA synthesis with SuperScript (Invitrogen, Carlsbad, Calif., USA). Concentration and purity of total RNA was measured with a NanoDrop ND-1000 spectrophotometer (A260/A280>1.9 and A260/A230>1.4) (NanoDrop Technologies, Wilmington, Del.) and RNA Quality Indicator (RQI) higher than 8.0 (Experion Automated Electrophoresis, Bio-Rad, USA) was considered to be high-quality total RNA preparations. A 10 μl of reaction mixture with 20 ng cDNA, 5 μl TaqMan mastermix (Applied Biosystems, Foster City, Calif., USA), and 100 nM TagMan gene expression assay were run in a 7900HT Fast Real-Time System (Applied Biosystems). The qPCR was carried out as follows: 50° C. for 2 minutes, 95° C. for 10 minutes, 40 cycles of 95° C. for 15 seconds, and 60° C. for 1 minute. The amount of mRNA was calculated relative to the amount of housekeeping genes (GAPDH, PPIA or HPRT) mRNA in the same sample by the formula X0/R0=2CtR-CtX, where X0 is the original amount of mRNA for the gene of interest, R0 is the original amount of HPRT mRNA, CtR the Ct value for HPRT, and CtX the Ct value for the gene of interest. Primer sequences are provided upon request.

SMILES	GSIS (islets from T2D donors)	islet ATP content (islets from T2D donors)	GSIS (islets of C57/BL mice)	ATP content (islets of C57/BL mice)	glucose evoked VDAC1 upregulation (total VDAC1 expression) [1]
CN(C)C(=N)N=C(N)N [metformin]	increased in parallel with the improved ATP generation	increased islet ATP content	do not affect	do not affect	abrogated the glucose evoked VDAC1 upregulation
O=C(CC(CO)N1CCN(c2ccc(OC(F)(F)F)cc2)CC1)Nc1ccc(Cl)cc1 (racemic) [VBIT-4, N-(4-chlorophenyl)-4-hydroxy-3-(4-(4-(trifluoromethoxy)phenyl)-piperazin-1-yl)butanamide]	increased in parallel with the improved ATP generation	increased islet ATP content	do not affect	do not affect	abrogated the glucose evoked VDAC1 upregulation
